Data set [1] deals with MDA-MB-468 triple negative breast adenocarcinoma cell line. Description: Cell cycle analysis (PI staining, flow cytometry). In kind it is cell-based, human. Also noted: G1 / S / G2/M: unit not given here.
Data set [2] shares this test system. Briefly: Vital cells, % control. The class given is cell-based, human. The protocol: (§1) Breast cancer cells are obtained from ATCC and cultured in Dulbecco Modified Eagle Medium with 10% fetal bovine serum. Cells are plated at 10^5 cells per P100 cell culture dish or at 10^4 cells per P60 cell culture dish in the presence of different concentrations compounds or DMSO control. Following treatment, the number of attached cells is measured using Coulter counter, and by staining with 1% methylene blue. Methylene blue is dissolved in 50%-50% mixture of Methanol and water. Cells are plated in 24- or 96-well plates and treated as planned, media are aspirated, cells are washed with PBS, fixed in methanol for 5-10 min, methanol is aspirated and plates are allowed to dry completely. Methylene blue solution is added to wells and plates are incubated for 5 min. Staining solution is removed and plates are washed with dH2O until washes are no longer blue. After plates are completely dry, a small amount of 1N HCl is added to each well to extract the methylene blue. The OD readout at 600 nm and a calibration curve are used to determine cell number.
After the addition of drugs and incubation, cells are trypsinized and aliquots of the samples are taken for counting and PI (Propidium Iodide) exclusion assay. One part of the cells is centrifuged and resuspended in 0.5 ml ice-cold PBS containing 5 μg/ml of PI. The other part of the cells is fixed in ice-cold 70% ethanol and stored in a freezer overnight. For cell cycle analysis, cells are stained with propidium iodide (PI) by standard procedures. Cellular DNA content is determined by flow cytometry using BD LSRII FACS, and the percentages of cells in G1, S or G2/M are determined using ModFit software.
as §1, with “min.” for “min,”
PI exclusion, cell cycle, TUNEL assays, and BrdU labeling assays are performed as described above in Example 2.

The conditions of data set [3]: prepared as directed (10 mg/ml); room temperature; cited from earlier work.
The test system of the next data set is Bcr-abl. Particulars: read-out: inhibits Bcr-abl phosphorylation, IC50; cited from earlier work.
The subject of data set [4] is panel of 63 other kinases, including native c-Abl. Particulars: cited from earlier work.
The next data set can be described thus: Lipophilicity. The class given is physicochemical. The text has this: (§2) The person skilled in the art will recognize that BA may be administered in any pharmaceutically acceptable form. e.g. as a pharmaceutically acceptable salt, solvate, or complex. Additionally, as BA is capable of tautomerizing in solution, the tautomeric form of BA is intended to be embraced by the term BA (or the equivalent 4-iodo-3-nitrobenzamide), along with the salts, solvates or complexes. In some embodiments, BA may be administered in combination with a cyclodextrin, such as hydroxypropylbetacyclodextrin.

For data set [5] the following is noted: in vivo; cited from earlier work.
Data set [6] is described as follows: Tissue distribution / blood-brain barrier. Particulars: in vivo.
Description: as §2
While not wishing to be bound by any particular theory, it is believed that BA achieves its anti-neoplastic effect by inhibiting the function of PARP. In some embodiments, BA can be used in the treatment of triple negative metastatic breast tumors. In some embodiments, BA can be used in the treatment of breast tumors in which at least one of ER, PR, and Her2 is negative. In some embodiments, BA can be used in the treatment of breast tumors in which at least two of ER, PR, and Her2 is negative, e.g. ER-negative, PR-negative, and Her-2 positive; or ER-positive, PR-negative, and Her-2 negative; or ER-negative, PR-positive, and Her-2 negative.

The next data set relates to advanced breast tumors. Description: Phase 1b open-label dose escalation study of BA with chemotherapeutic regimens. The class given is in vivo, human.
Another data set has as its target T1, PARP (Homo sapiens, UniProt P09874).
T1 construct: endogenous in cells; host or cells: peripheral blood mononuclear cells (PBMCs) from patients
Briefly: PARP inhibition in peripheral mononuclear blood cells (PMBCs) from patients. In kind it is in vivo. The protocol:
The functional activity of PARP before and after treatment of BA will be determined using a PARP activity assay in Peripheral Blood Mononuclear Cells (PBMCs). PBMCs will be prepared from 5 mL blood samples according to procedures described in detail in the study manual and PARP activity/inhibition will be measured.

T1 sequence (P09874 whole entry): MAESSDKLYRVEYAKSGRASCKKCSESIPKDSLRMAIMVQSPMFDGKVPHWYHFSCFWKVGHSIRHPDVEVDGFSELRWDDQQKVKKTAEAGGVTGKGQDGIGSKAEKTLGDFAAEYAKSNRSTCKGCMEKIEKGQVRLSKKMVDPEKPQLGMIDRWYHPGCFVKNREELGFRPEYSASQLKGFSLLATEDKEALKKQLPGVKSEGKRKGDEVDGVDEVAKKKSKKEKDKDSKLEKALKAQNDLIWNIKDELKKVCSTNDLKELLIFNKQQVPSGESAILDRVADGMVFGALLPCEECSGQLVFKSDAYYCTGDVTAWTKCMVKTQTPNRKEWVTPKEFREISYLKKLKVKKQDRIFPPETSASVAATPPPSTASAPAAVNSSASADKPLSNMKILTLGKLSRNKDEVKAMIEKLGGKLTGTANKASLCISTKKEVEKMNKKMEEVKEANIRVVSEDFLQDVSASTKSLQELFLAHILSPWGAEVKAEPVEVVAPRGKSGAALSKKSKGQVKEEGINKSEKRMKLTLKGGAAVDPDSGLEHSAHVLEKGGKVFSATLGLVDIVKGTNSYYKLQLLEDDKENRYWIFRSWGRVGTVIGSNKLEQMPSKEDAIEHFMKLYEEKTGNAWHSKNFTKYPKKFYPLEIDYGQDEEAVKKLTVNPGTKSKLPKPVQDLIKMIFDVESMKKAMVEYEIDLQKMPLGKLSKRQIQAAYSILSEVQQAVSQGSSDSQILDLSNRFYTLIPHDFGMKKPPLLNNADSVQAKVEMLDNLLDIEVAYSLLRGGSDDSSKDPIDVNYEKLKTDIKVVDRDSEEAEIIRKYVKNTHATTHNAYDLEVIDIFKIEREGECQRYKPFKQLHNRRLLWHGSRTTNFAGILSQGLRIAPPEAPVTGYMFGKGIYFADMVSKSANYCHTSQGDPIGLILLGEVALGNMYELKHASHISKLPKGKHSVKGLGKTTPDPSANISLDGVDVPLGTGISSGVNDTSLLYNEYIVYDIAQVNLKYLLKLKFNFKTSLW

For `CCc1c2c(nc3ccc(OC(=O)N4CCC(N5CCCCC5)CC4)cc13)-c1cc3c(c(=O)n1C2)COC(=O)[C@]3(O)CC` [Irinotecan, reference compound], in data set [1] (Irinotecan 5 uM + BA 0 uM), the G1 worked out at 38.17, the G2/M worked out at 28.05 and the S was found to be 33.77. In addition, the “vital cells, % control” value in data set [2] (Irinotecan 5 uM + BA 0 uM) was found to be 48.6 % control.
On to `N.N.O=C([O-])C1(C(=O)[O-])CCC1.[Pt+2]` [carboplatin], for which the “stability of carboplatin solutions” value in data set [3] is listed as “eight”.
Take `NC(=O)c1cccc(-c2cc(Nc3ccc(OC(F)(F)F)cc3)ncn2)c1` [GNF-2]: in the data set with Bcr-abl, the IC50 was 267 nM. In addition, in data set [4], the “inhibition of a panel of 63 other kinases, including native c-Abl” value is “does not inhibit”.
For `NC(=O)c1ccc(I)c([N+](=O)[O-])c1` [BA, 4-iodo-3-nitrobenzamide], the lipophilicity result in the data set “Lipophilicity” is “very lipophilic”. In addition, the blood-brain barrier entry in data set [5] is given as “cross the blood-brain barrier”. Also, in data set [6], the tissue distribution result was “distributes rapidly and widely into tissues, including the brain and cerebrospinal fluid (CSF)”. The “effect on cell cycle arrest and antiproliferative effect of gamma irradiation” value in [1] (3 gray of gamma irradiation with 100 μM of BA, FIG. 6) was “potentiates S- and G2/M cell cycle arrest and enhances the antiproliferative effect of gamma irradiation”. In data set [1] (BA in combination with PPP), the “effect on cell cycle arrest and cytotoxic effects induced by PPP” value is “potentiates S- and G2/M cell cycle arrest and enhances cytotoxic effects”. Besides, the “effect on cell cycle arrest and cytotoxic effects induced by carboplatin or gemcitabine” value in data set [1] (BA in combination with gemcitabine or carboplatin, FIG. 2) is “potentiates S- and G2/M cell cycle arrest and enhances cytotoxic effects”. Moreover, in [1] (BA in combination with irinotecan), the “effect on cell cycle arrest and cytotoxic effects induced by irinotecan” value is “potentiates S- and G2/M cell cycle arrest and enhances cytotoxic effects”. Further, the G1 is 65.50 in [1] (Irinotecan 0 uM + BA 50 uM), 57.72 in data set [1] (Irinotecan 0 uM + BA 100 uM), 50.20 in data set [1] (PPP 0 nM + 201 50 uM) and 40.63 in data set [1] (PPP 0 nM + 201 100 uM). In addition, the G2/M is given as 11.02 in data set [1] (Irinotecan 0 uM + BA 50 uM), 15.34 in [1] (Irinotecan 0 uM + BA 100 uM), 15.21 in data set [1] (PPP 0 nM + 201 50 uM) and 20.16 in data set [1] (PPP 0 nM + 201 100 uM). In addition, the S in [1] (Irinotecan 0 uM + BA 50 uM) is recorded as 23.48; in [1] (Irinotecan 0 uM + BA 100 uM), 26.93; in data set [1] (PPP 0 nM + 201 50 uM) it was 31.34; in data set [1] (PPP 0 nM + 201 100 uM) it was 34.52. Also, the entries for the “vital cells, % control” value in data set [2] (Irinotecan 0 uM + BA 50 uM) and in data set [2] (Irinotecan 0 uM + BA 100 uM) were 91.5 % control and 67.5 % control, respectively. The “Vital Cell % control” value was determined as 82 % control in data set [2] (PPP 0 nM + 201 50 uM) and 61 % control in [2] (PPP 0 nM + 201 100 uM). Besides, the “subjects with evidence of stable disease for 2 cycles of treatment or more” value with advanced breast tumors (BA in combination with chemotherapeutic regimens) was “Approximately 80%”. Besides, the “tolerability of combination of BA with each cytotoxic regimen” value with advanced breast tumors (with topotecan, gemcitabine, temozolomide, or carboplatin+paclitaxel) is “well tolerated”. Further, the “biologically relevant dose that elicits significant and sustained PARP inhibition” value on PARP (Phase 1b) was determined as 2.8 mg/kg. The “PARP inhibition in PBMCs from patients” value at PARP (after multiple dosing with BA doses of 2.8 mg/kg or higher, FIG. 3) is “significant and prolonged PARP inhibition”.
For `COc1cc([C@@H]2c3cc4c(cc3[C@H](O)[C@H]3COC(=O)[C@@H]23)OCO4)cc(OC)c1OC` [PPP, Picropodophyllin, reference compound], the values for the G1 in [1] (PPP 200 nM + 201 0 uM) and in data set [1] (PPP 400 nM + 201 0 uM) were 51.42 and 37.29, respectively. The G2/M in [1] (PPP 200 nM + 201 0 uM) was 15.01; in data set [1] (PPP 400 nM + 201 0 uM), 20.17. Further, the S is reported as 30.22 in data set [1] (PPP 200 nM + 201 0 uM) and 25.32 in data set [1] (PPP 400 nM + 201 0 uM). Moreover, the entries for the “Vital Cell % control” value in [2] (PPP 200 nM + 201 0 uM) and in [2] (PPP 400 nM + 201 0 uM) were 89 % control and 60 % control, respectively.

(Values after patent publication US7732491B2, “Treatment of breast cancer with a PARP inhibitor alone or in combination with anti-tumor agents” (priority 2007, dated 2010).)
